Laboratory results as given in patent US3991187A, “Medicinal compositions and methods of use involving phosphoric acid esters” (Aktiebolaget Leo, priority 1971, dated 1976).
Structures can show the parent of a compound that is named as a salt.

How the values were obtained:
gerbil colon = experiment: smooth muscle stimulatory effect on the gerbil colon in vivo; design: species or system mongolian gerbils; conditions: for contraction of the colon: i.v., same dose range (from 40 mg/kg)
Description: This example illustrates the smooth muscle stimulatory effect of esters of this invention on the gerbil colon in vivo.
The experiments are performed with mongolian gerbils, anesthetized with pentobarbital, 50 mg/kg. The ascending colon is exposed and carefully stretched between silk thread loops and a strain-gauge transducer.
After a stable base-line has been established an ester of this invention, sodium bis (4-(3-oxo-3-(2,4,6-trihydroxyphenyl)-propyl)phenyl) phosphate is infused i.v.
In doses from 40 mg/kg this treatment causes the gut to respond with a series of contractions.

[1] = system: prostaglandins E1, E2 F1α and F2α; experiment: PG-inhibitory effect on the isolated gerbil colon; type: cell-based, Gerbils (Meriones unguiculatus); conditions: for selective inhibitory effects compared with PPP: gerbil colon; for concentration for 50 per cent reduction of the PG-induced contraction, as fraction of that of PPP: relative to PPP (10-75 μg/ml)
Description: The PG-inhibitory effect of esters of the present invention on the gerbil colon are determined using the general technique described by Eakins, Miller & Karim (J. Pharm. Exp. Ther. 176:441, 1971). Gerbils (Meriones unguiculatus) of own breed, both sexes, weighing 50-80 g are used. The animal is stunned, colon ascendens immediately removed, and a 2-3 cm piece mounted in a 6 ml bath containing a modified de Jalon solution at 28° C and continuously oxygenated. Contractions of the organ are registered either isotonically or isometrically. When testing the inhibitory effect of a compound this is added to the bath 2 min before the addition of prostaglandin. […] Several concentrations of each antagonist are used.

PGE1 = experiment: prostaglandin-stimulated glycolysis of the prepubertal ovary (lactic acid production); type: cell-based, rats; conditions: for prostaglandin inhibiting activity: compared with the compound giving 50% reduction at 50-100 μg/ml
Description: The action of esters of the present invention on the prostaglandin-stimulated glycolysis of the prepubertal ovary is investigated. The method used has been described in detail by Perklev & Ahren (Life Sciences Part I, 10:1387, 1971). In these experiments ovaries from prepubertal rats are removed and placed in Erlenmeyer flasks containing compounds of this invention dissolved in Krebs biocarbonate buffer. After that the ovaries have been preincubated during 60 min. at 37° C in this medium, they are blotted on filter paper and then washed for 2 min. in plain buffer. The ovaries are then transferred to a new incubation medium containing prostaglandins (PG) dissolved in Krebs bicarbonate buffer and incubated at 37° C for 2 hrs with continuous shaking. The ovarian glycolysis is then determined by measuring the concentration of lactic acid in the incubation medium. When polyphloretin phosphate (PPP) is present in the preincubation medium in a concentration of 500 μg/ml, the subsequent ovarian lactic acid production produced by PGE1 is reduced to about 50% of that obtained with ovaries preincubated in plain buffer. When sodium bis(4-(3-(2,4,6-trihydroxyphenyl)propyl)phenyl)phosphate is investigated in the same experimental system, a 50% reduction of the lactate production is seen when only 50-100 μg/ml of the compound is present in the preincubation medium.

[2] = system: Slow Reacting Substance (SRS); experiment: antagonism to Slow Reacting Substance on the isolated guinea-pig ileum (Mathe & Strandberg); type: cell-based
Description: The antagonism to Slow Reacting Substance (SRS) is determined on the isolated guinea-pig ileum as described by Mathe & Strandberg (Acta physiol. scand. 82:460, 1971). Purified SRS is obtained from cat paws perfused with compound 48/80 (Strandberg & Uvnas: Acta physiol. scand. 82:358, 1971). Sodium bis(4-(3-oxo-3-(2,4,6-trihydroxyphenyl)propyl)phenyl) phosphate was tested in this system in several concentrations.

[3] = system: acetylcholine, 5-HT and bradykinin; experiment: selectivity of the antagonism: other agonists on the gerbil colon; type: cell-based, Gerbils (Meriones unguiculatus); conditions: far higher concentrations than the prostaglandin-inhibitory ones
Excerpt: (§1) Results from these experiments give an approximate idea of the PG-inhibitory potency of the compounds. When more precise information about this is desired we use a more elaborate method involving the establishment of several PG dose-response curves in the presence of various concentrations of inhibitor. The method used is essentially the same as that described by Arunlakshana & Schild (Br. J. Pharm. 14:48, 1959). Other agonists, acetylcholine,5-HT and bradykinin, are included in these experiments in order to determine the selectivity of the antagonism.
(§2) In the quantitative assay it is confirmed that sodium bis(4-(3-oxo-3-(2,4,6-trihydroxyphenyl)propyl)phenyl)phosphate has a PG inhibition potency about 10 times that of PPP on a weight basis, and also the results with sodium bis (3,5-dihydroxy-4-(3-(4-hydroxyphenyl)propionyl)phenyl)phosphate are confirmed.

prostaglandins = experiment: quantitative assay: PG dose-response curves in the presence of inhibitor (Arunlakshana & Schild), gerbil colon; type: cell-based, Gerbils (Meriones unguiculatus)
Excerpt: as §1, §2

bronchial smooth muscle = experiment: isolated perfused guinea-pig lung preparation, bronchoconstriction; type: cell-based, guinea pigs
Excerpt: The effects of esters of the present invention on bronchial smooth muscle have been investigated using an isolated perfused guinea-pig lung preparation according to Bhattacharya & Delaunois (Arch. Int. Pharmacodyn. 101:495, 1955). The lungs from guinea pigs weighing 300-400 g are removed, and the trachea and A. pulmonalis cannulated. The arterial cannula is connected to a perfusion fluid reservoir containing Tyrode solution buffered with 10 % Sorensen phosphate buffer. The tracheal cannula is connected with tubing to a carbogen gas supply delivering a constant amount per time unit. The perfusion pressure is measured in a side arm of the tubing with a "Mercury" transducer connected to an Ultralette UV-recorder. The compounds are injected via the arterial cannula, close to the entrance of A. pulmonalis in the lung.

With `O=C(CCc1ccc(OP(=O)([O-])Oc2ccc(CCC(=O)c3ccc(O)cc3O)cc2)cc1)c1ccc(O)cc1O.[Na+]` [Sodium bis(4-(3-(2,4-dihydroxyphenyl)-3-oxopropyl)phenyl) phosphate] the “contraction of the colon” value (gerbil colon) was “give contraction in the same dose range”, the “selective inhibitory effects compared with PPP” value (“selective inhibitory effects” for short) [1] was “equal to or superior to that of PPP” and the “prostaglandin inhibiting activity” value (PGE1) was “same order”. The “inhibition of SRS” value [2] was “inhibit SRS”.

`O=C(CCc1ccc(O)cc1)c1c(O)cc(OP(=O)(O)Oc2cc(O)c(C(=O)CCc3ccc(O)cc3)c(O)c2)cc1O` [sodium bis(3,5-dihydroxy-4-(3-(4-hydroxyphenyl)propionyl)phenyl phosphate] was tested, and the “contraction of the colon” value (gerbil colon) was “give contraction in the same dose range”, the “influence on the contractions elicited by acetylcholine, 5-HT or bradykinin” value [3] was “no influence” and the “results of the approximate assay (one fourth of the PPP concentration) in the quantitative assay” value (prostaglandins) was “confirmed”. The “concentration for 50 per cent reduction of the PG-induced contraction, as fraction of that of PPP” value [1] was “one fourth”, the “prostaglandin inhibiting activity” value (PGE1) was “same order” and the “inhibition of SRS” value [2] was “inhibit SRS”.

In the case of `O=C(CCc1ccc(OP(=O)([O-])Oc2ccc(CCC(=O)c3c(O)cc(O)cc3O)cc2)cc1)c1c(O)cc(O)cc1O.[Na+]` [sodium bis(4-(3-oxo-3-(2,4,6-trihydroxyphenyl)-propyl)phenyl) phosphate], the minimal effective dose (gerbil colon; Meriones unguiculatus, iv, infused i.v., gerbils anesthetized with pentobarbital, ascending colon, read-out: dose causing the gut to respond with a series of contractions) is reported as no less than 40 mg/kg, the “influence on the contractions elicited by acetylcholine, 5-HT or bradykinin” value [3] is reported as “no influence” and the “PG inhibition potency relative to PPP” value (prostaglandins; on a weight basis) is reported as “about 10 times”. The “concentration for 50 per cent reduction of the PG-induced contraction, as fraction of that of PPP” value [1] was “about one tenth”, the “activity as a prostaglandin inhibitor relative to PPP” value (PGE1) was 5-10 times and the IC50 (PGE1; Rattus norvegicus, preincubation 60 min at 37° C, read-out: concentration in the preincubation medium giving a 50% reduction of the lactate production) was 50 to 100 µg/mL. The minimal effective concentration ([2]; Cavia porcellus, concentrations as low as, read-out: concentration that inhibits contractions produced by SRS) was no less than 5 µg/mL, the “manner of inhibition of SRS” value ([2]; parallel shift of the dose-response curves, no change in maximum contraction) was “competitive manner” and the “dose showing a bronchoconstricting effect” value (bronchial smooth muscle; injected via the arterial cannula, about 0.5 mg and upwards) was no less than 0.5 mg.

In the case of `O=P(O)(Oc1ccccc1)Oc1ccccc1` [sodium salt of diphenyl phosphate, sodium diphenyl phosphates, reference compound], the “effect on the colon” value (gerbil colon; doses up to 400 mg/kg) is reported as “no effects at all”, the “effect on PG-induced contraction” value ([1]; concentrations 10 times as high as that of PPP) is reported as “without effect” and the “inhibition of SRS” value [2] is reported as “without effect”. The “bronchoconstricting effect” value (bronchial smooth muscle; dose 12.8 mg) was “completely lacked such an effect”.

In the case of `O=C([O-])COc1cccc(C(=O)CCc2ccc(OP(=O)([O-])Oc3ccc(CCC(=O)c4cccc(OCC(=O)[O-])c4)cc3)cc2)c1.[Na+].[Na+].[Na+]` [trisodium bis(4-(3-(3-(carboxylatomethoxy)phenyl)-3-oxopropyl)-phenyl) phosphate], the “selective inhibitory effects” value [1] is reported as “equal to or superior to that of PPP”, the “prostaglandin inhibiting activity” value (PGE1) is reported as “same order” and the “inhibition of SRS” value [2] is reported as “inhibit SRS”.

With `COc1ccc(C(=Cc2ccc(C(=O)[O-])cc2)C(=O)c2ccc(OP(=O)([O-])Oc3ccc(C(=O)C(=Cc4ccc(C(=O)[O-])cc4)c4ccc(OC)cc4)c(OC)c3)cc2OC)cc1.[Na+].[Na+].[Na+]` [trisodium bis(4-(3-(4-carboxylatophenyl)-2-(4-methoxy-phenyl)-acryloyl)-3-methoxyphenyl) phosphate] the “selective inhibitory effects” value [1] was “equal to or superior to that of PPP”, the “prostaglandin inhibiting activity” value (PGE1) was “same order” and the “inhibition of SRS” value [2] was “inhibit SRS”.
